These results are taken from patent US9393271B2, “GHRH agonists for islet cell transplantation and function and the treatment of diabetes” (UNIVERSITY OF MIAMI, priority 2012, dated 2016).

Non-standard residues stand in square brackets, D forms with d. Residues, ends and D or L forms follow the SMILES beside them. No end group written: not given here. ξ: configuration not given here. *: point of attachment. Phe(F5) = N[C@@H](Cc1c(F)c(F)c(F)c(F)c1F)C(=O)O; Desaminotyrosyl = O=C(CCc1ccc(O)cc1)*; NMeY = CN[C@@H](Cc1ccc(O)cc1)C(=O)O; Agmatine = N=C(N)NCCCCN*; Nle = CCCC[C@H](N)C(=O)O; Orn = NCCC[C@H](N)C(=O)O; Abu = CC[C@H](N)C(=O)O; GABA = NCCCC(=O)O; ξA = CC(N)C(=O)O

In one experiment the test system is GH level. Kind of experiment: In vivo endocrine activity (GH release), subcutaneous administration. The following applies: rat, s.c. injection, 15 min after. How it is done:
Subcutaneous Administration. Adult male rats were used and anesthetized with pentobarbital (6 mg/100 g, b.w.), by i.p. injection. […] Blood samples were taken from the jugular vein 5, 15 and/or 30 minutes after the injection. The blood samples were centrifuged, plasma was removed and the GH level was measured by ELISA. The results are summarized in terms of potency in Table 9.
Consider “[N—Me-Tyr^1, Gln^8, Orn^12, Abu^15, Orn^21, Nle^27, Agm^29]hGHRH(1-29) ([NMeY]ADAIFTQSYR[Orn]VL[Abu]QLSAR[Orn]LLQDI[Nle]S[Agmatine]) [Peptide P-20373]”, for which the “GH releasing potency relative to JI-38 (=1)” value was found to be 0.23.

Staying with this experiment, now noted: rat, s.c. injection, 30 min after.
Regarding “[N—Me-Tyr^1, Gln^8, Orn^12, Abu^15, Orn^21, Nle^27, Agm^29]hGHRH(1-29) ([NMeY]ADAIFTQSYR[Orn]VL[Abu]QLSAR[Orn]LLQDI[Nle]S[Agmatine]) [Peptide P-20373]”, the “GH releasing potency relative to JI-38 (=1)” value was 0.88.

Another experiment deals with T1, GHRH receptor (human pituitary membrane homogenates) (Homo sapiens, UniProt Q02643).
T1 sequence (Q02643 23-423): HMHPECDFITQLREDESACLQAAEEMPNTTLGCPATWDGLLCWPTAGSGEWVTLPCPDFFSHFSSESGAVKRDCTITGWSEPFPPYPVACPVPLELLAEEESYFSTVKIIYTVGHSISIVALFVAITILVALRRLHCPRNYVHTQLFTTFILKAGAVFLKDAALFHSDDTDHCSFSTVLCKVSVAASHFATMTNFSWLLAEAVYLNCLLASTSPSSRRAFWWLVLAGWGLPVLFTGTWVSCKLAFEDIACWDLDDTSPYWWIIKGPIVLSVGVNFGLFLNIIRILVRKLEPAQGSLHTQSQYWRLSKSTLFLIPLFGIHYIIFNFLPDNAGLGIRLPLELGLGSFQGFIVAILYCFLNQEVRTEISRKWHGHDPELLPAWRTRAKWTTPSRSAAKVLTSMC
Kind of experiment: GHRH receptor binding, ligand competition with 125I-labeled JV-1-42 (Table 7). Set-up: Normal human pituitaries were purchased from the National Hormone and Peptide Program; tissue National Hormone and Peptide Program (A. F. Parlow, Harbor-UCLA Medical Center, Torrance, Calif.); host or cells: normal human pituitary, membrane fraction / homogenate. The following applies: JI-38 = 1.
As for `CCCC[C@H](NC(=O)[C@@H](NC(=O)[C@H](CC(=O)O)NC(=O)[C@H](CCC(N)=O)NC(=O)[C@H](CC(C)C)NC(=O)[C@H](CC(C)C)NC(=O)[C@H](CCCN)NC(=O)[C@H](CCCNC(=N)N)NC(=O)[C@H](C)NC(=O)[C@H](CO)NC(=O)[C@H](CC(C)C)NC(=O)[C@H](CCC(N)=O)NC(=O)[C@H](CC)NC(=O)[C@H](CC(C)C)NC(=O)[C@@H](NC(=O)[C@H](CCCN)NC(=O)[C@H](CCCNC(=N)N)NC(=O)[C@H](Cc1ccc(O)cc1)NC(=O)[C@H](CO)NC(=O)[C@H](CCC(N)=O)NC(=O)[C@@H](NC(=O)[C@H](Cc1ccccc1)NC(=O)[C@@H](NC(=O)[C@H](C)NC(=O)[C@H](CC(=O)O)NC(=O)[C@@H](C)NC(=O)CCc1ccc(O)cc1)[C@@H](C)CC)[C@@H](C)O)C(C)C)[C@@H](C)CC)C(=O)N[C@@H](CC(=O)O)C(=O)N[C@@H](CCCNC(=N)N)C(=O)NC` [Peptide P-27408, [Dat^1, D-Ala^2, Gln^8, Orn^12, Abu^15, Orn^21, Nle^27, Asp^28]hGHRH(1-30)NH—CH3] (Desaminotyrosyl-[dA]DAIFTQSYR[Orn]VL[Abu]QLSAR[Orn]LLQDI[Nle]DR-NHMe), the “Relative affinitiy (Binding potency) vs JI-38” value (from here on “Relative affinitiy”) worked out at 7.91.
On to `CCCC[C@H](NC(=O)[C@@H](NC(=O)[C@H](CC(=O)O)NC(=O)[C@H](CCC(N)=O)NC(=O)[C@H](CC(C)C)NC(=O)[C@H](CC(C)C)NC(=O)[C@H](CCCN)NC(=O)[C@H](CCCNC(=N)N)NC(=O)[C@H](C)NC(=O)[C@H](CO)NC(=O)[C@H](CC(C)C)NC(=O)[C@H](CCC(N)=O)NC(=O)[C@H](CC)NC(=O)[C@H](CC(C)C)NC(=O)[C@@H](NC(=O)[C@H](CCCN)NC(=O)[C@H](CCCNC(=N)N)NC(=O)[C@H](Cc1ccc(O)cc1)NC(=O)[C@H](CO)NC(=O)[C@@H](NC(=O)[C@@H](NC(=O)[C@H](Cc1ccccc1)NC(=O)[C@@H](NC(=O)[C@H](C)NC(=O)[C@H](CC(=O)O)NC(=O)[C@@H](C)NC(=O)[C@H](Cc1ccc(O)cc1)NC)[C@@H](C)CC)[C@@H](C)O)[C@@H](C)O)C(C)C)[C@@H](C)CC)C(=O)N[C@@H](CC(=O)O)C(=O)N[C@@H](CCCNC(=N)N)C(=O)NC` [Peptide P-27410, [N—Me-Tyr^1, D-Ala^2, Thr^8, Orn^12, Abu^15, Orn^21, Nle^27, Asp^28]hGHRH(1-29)NH—CH3] (H-[NMeY][dA]DAIFTTSYR[Orn]VL[Abu]QLSAR[Orn]LLQDI[Nle]DR-NHMe), for which the “Relative affinitiy” value amounted to 5.24.
On to `CCCC[C@H](NC(=O)[C@@H](NC(=O)[C@H](CC(=O)O)NC(=O)[C@H](CCC(N)=O)NC(=O)[C@H](CC(C)C)NC(=O)[C@H](CC(C)C)NC(=O)[C@H](CCCN)NC(=O)[C@H](Cc1c[nH]cn1)NC(=O)[C@H](C)NC(=O)[C@H](CO)NC(=O)[C@H](CC(C)C)NC(=O)[C@H](CCC(N)=O)NC(=O)[C@H](CC)NC(=O)[C@H](CC(C)C)NC(=O)[C@@H](NC(=O)[C@H](CCCN)NC(=O)[C@H](Cc1c[nH]cn1)NC(=O)[C@H](Cc1ccc(O)cc1)NC(=O)[C@H](CO)NC(=O)[C@H](CCC(N)=O)NC(=O)[C@@H](NC(=O)[C@H](Cc1ccccc1)NC(=O)[C@@H](NC(=O)[C@H](C)NC(=O)[C@H](CC(=O)O)NC(=O)C(C)NC(=O)CCc1ccc(O)cc1)[C@@H](C)CC)[C@@H](C)O)C(C)C)[C@@H](C)CC)C(=O)N[C@@H](CC(=O)O)C(=O)N[C@@H](CCCNC(=N)N)C(=O)NC` (stereo partly drawn) [Peptide P-27413, [Dat^1, Gln^8, His^11, Orn^12, Abu^15, His^20, Orn^21, Nle^27, Asp^28]hGHRH(1-29)NH—CH3] (Desaminotyrosyl-[ξA]DAIFTQSYH[Orn]VL[Abu]QLSAH[Orn]LLQDI[Nle]DR-NHMe), for which the “Relative affinitiy” value came to 1.78.
With `CCCC[C@H](NC(=O)[C@@H](NC(=O)[C@H](CC(=O)O)NC(=O)[C@H](CCC(N)=O)NC(=O)[C@H](CC(C)C)NC(=O)[C@H](CC(C)C)NC(=O)[C@H](CCCN)NC(=O)[C@H](CCCNC(=N)N)NC(=O)[C@H](C)NC(=O)[C@H](CO)NC(=O)[C@H](CC(C)C)NC(=O)[C@H](CCC(N)=O)NC(=O)[C@H](CC)NC(=O)[C@H](CC(C)C)NC(=O)[C@@H](NC(=O)[C@H](CCCN)NC(=O)[C@H](CCCNC(=N)N)NC(=O)[C@H](Cc1ccc(O)cc1)NC(=O)[C@H](CO)NC(=O)[C@H](CC(N)=O)NC(=O)[C@@H](NC(=O)[C@H](Cc1c(F)c(F)c(F)c(F)c1F)NC(=O)[C@@H](NC(=O)[C@H](C)NC(=O)[C@H](CC(=O)O)NC(=O)[C@@H](C)NC(=O)[C@H](Cc1ccc(O)cc1)NC)[C@@H](C)CC)[C@@H](C)O)C(C)C)[C@@H](C)CC)C(=O)N[C@@H](CO)C(=O)N[C@@H](CCCNC(=N)N)C(=O)NCCCC(=O)NC` [Peptide P-27414, [N—Me-Tyr^1, D-Ala^2, Fpa5^6, Orn^12, Abu^15, Orn^21, Nle^27, Gab^30]hGHRH(1-30)NH—CH3] (H-[NMeY][dA]DAI[Phe(F5)]TNSYR[Orn]VL[Abu]QLSAR[Orn]LLQDI[Nle]SR[GABA]-NHMe), the “Relative affinitiy” value worked out at 2.79.
Consider `CCCC[C@H](NC(=O)[C@@H](NC(=O)[C@H](CC(=O)O)NC(=O)[C@H](CCC(N)=O)NC(=O)[C@H](CC(C)C)NC(=O)[C@H](CC(C)C)NC(=O)[C@H](CCCN)NC(=O)[C@H](CCCNC(=N)N)NC(=O)[C@H](C)NC(=O)[C@H](CO)NC(=O)[C@H](CC(C)C)NC(=O)[C@H](CCC(N)=O)NC(=O)[C@H](CC)NC(=O)[C@H](CC(C)C)NC(=O)[C@@H](NC(=O)[C@H](CCCN)NC(=O)[C@H](CCCNC(=N)N)NC(=O)[C@H](Cc1ccc(O)cc1)NC(=O)[C@H](CO)NC(=O)[C@H](CC(N)=O)NC(=O)[C@@H](NC(=O)[C@H](Cc1ccccc1)NC(=O)[C@@H](NC(=O)[C@H](C)NC(=O)[C@H](CC(=O)O)NC(=O)[C@H](C)NC(=O)[C@H](Cc1ccc(O)cc1)NC)[C@@H](C)CC)[C@@H](C)O)C(C)C)[C@@H](C)CC)C(=O)N[C@@H](CO)C(=O)N[C@@H](CCCNC(=N)N)C(=O)NCCCC(=O)NC` [Peptide P-27415, [N—Me-Tyr^1, Orn^12, Abu^15, Orn^21, Nle^27, Gab^30]hGHRH(1-30)NH—CH3] (H-[NMeY]ADAIFTNSYR[Orn]VL[Abu]QLSAR[Orn]LLQDI[Nle]SR[GABA]-NHMe), for which the “Relative affinitiy” value was 1.44.
As to `CCCC[C@H](NC(=O)[C@@H](NC(=O)[C@H](CC(=O)O)NC(=O)[C@H](CCC(N)=O)NC(=O)[C@H](CC(C)C)NC(=O)[C@H](CC(C)C)NC(=O)[C@H](CCCN)NC(=O)[C@H](CCCNC(=N)N)NC(=O)[C@H](C)NC(=O)[C@H](CO)NC(=O)[C@H](CC(C)C)NC(=O)[C@H](CCC(N)=O)NC(=O)[C@H](CC)NC(=O)[C@H](CC(C)C)NC(=O)[C@@H](NC(=O)[C@H](CCCN)NC(=O)[C@H](CCCNC(=N)N)NC(=O)[C@H](Cc1ccc(O)cc1)NC(=O)[C@H](CO)NC(=O)[C@H](CCC(N)=O)NC(=O)[C@@H](NC(=O)[C@H](Cc1ccccc1)NC(=O)[C@@H](NC(=O)[C@H](C)NC(=O)[C@H](CC(=O)O)NC(=O)[C@@H](C)NC(=O)[C@H](Cc1ccc(O)cc1)NC)[C@@H](C)CC)[C@@H](C)O)C(C)C)[C@@H](C)CC)C(=O)N[C@@H](CC(=O)O)C(=O)N[C@@H](CCCNC(=N)N)C(=O)NCC` [Peptide P-28420, [N—Me-Tyr^1, D-Ala^2, Gln^8, Orn^12, Abu^15, Orn^21, Nle^27, Asp^28]hGHRH(1-29)NH—CH2—CH3] (H-[NMeY][dA]DAIFTQSYR[Orn]VL[Abu]QLSAR[Orn]LLQDI[Nle]DR-NHEt), the “Relative affinitiy” value was found to be 8.37.
As to `CCCC[C@H](NC(=O)[C@@H](NC(=O)[C@H](CC(=O)O)NC(=O)[C@H](CCC(N)=O)NC(=O)[C@H](CC(C)C)NC(=O)[C@H](CC(C)C)NC(=O)[C@H](CCCN)NC(=O)[C@H](CCCNC(=N)N)NC(=O)[C@H](C)NC(=O)[C@H](CO)NC(=O)[C@H](CC(C)C)NC(=O)[C@H](CCC(N)=O)NC(=O)[C@H](CC)NC(=O)[C@H](CC(C)C)NC(=O)[C@@H](NC(=O)[C@H](CCCN)NC(=O)[C@H](CCCNC(=N)N)NC(=O)[C@H](Cc1ccc(O)cc1)NC(=O)[C@H](CO)NC(=O)[C@H](CC(N)=O)NC(=O)[C@@H](NC(=O)[C@H](Cc1ccccc1)NC(=O)[C@@H](NC(=O)[C@H](C)NC(=O)[C@H](CC(=O)O)NC(=O)[C@@H](C)NC(=O)[C@H](Cc1ccc(O)cc1)NC)[C@@H](C)CC)[C@@H](C)O)C(C)C)[C@@H](C)CC)C(=O)N[C@@H](CC(=O)O)C(=O)N[C@@H](CCCNC(=N)N)C(=O)NCC` [Peptide P-28421, [N—Me-Tyr^1, D-Ala^2, Orn^12, Abu^15, Orn^21, Nle^27, Asp^28]hGHRH(1-29)NH—CH2—CH3] (H-[NMeY][dA]DAIFTNSYR[Orn]VL[Abu]QLSAR[Orn]LLQDI[Nle]DR-NHEt), the “Relative affinitiy” value was found to be 2.96.
